Experiments:
[1] = target: T1, CYP3A4 (Homo sapiens, UniProt P08684); test: CYP3A4 inhibitory in vitro assay (fluorometric inhibitor screening kit); format: biochemical; details: for inhibition at 150 µM: Concentration 150 (unit inferred); for inhibition at 200 µM: Concentration 200 (unit inferred)
T1 construct: purchased BioVision Inc. K702-200
Experimental: Briefly, incubations were conducted in a reaction volume of 200 μl/well in a 96-well microliter plate. For the calibration curve, resorufin (standard) was plotted by taking different concentrations (0, 4, 8, 12, 16, 20, 30, and 40 µl) of the 1 pmol/μl of the standard available in the kit. One mole of resorufin corresponds to the metabolism of 1 mol of the CYP3A4 substrate. […] The corresponding percentage inhibition due to the test ligand or positive inhibition control was calculated. CYP3A4 activities observed with punicalagin at varying concentrations (50,100, 150, 200, 250, and 300 µM) were noted down ([Hidaka et al., 2005]; [Faria et al., 2007]). The concentration at which 50% of the CYP3A4 activity is inhibited (IC50) was noted down. The logarithm values were plotted onto the graphs. Each compound was tested in triplicates. Inhibition curves were plotted from the log values of the concentration of the samples vs. the percentage inhibition calculated.

[2] = Pharmacokinetics of TAC in Wistar rats with and without oral PRE (LC-MS/MS of plasma); format: in vivo
Experimental: The assessment of TAC in all the samples was done with the help of the LC-MS/MS method. Samples were prepared following the method stated by [Shokati et al. (2015)]. After the preparation of samples, the supernatant was then used further for investigation. An aliquot of 10 μL was injected into the LC-MS/MS system. The column used for analysis was Eclipse XDB C-18 with 100 mm × […] × 3.5 um) with a flow rate of 1.5 ml/min (LC flow split to MS as 0.45 ml/min). The mobile phase used was a mixture of solvent A (acetonitrile) and solvent B (ammonium acetate in water) including 0.1% formic acid in a ratio of 95:05 v/v with a run time of 2 min isocratic (Supplementary Table S2. The compounds were detected by tandem mass spectrometry using electrospray ionization in the positive mode and using ion transitions m/z 821.5 -> 768.0 for TAC (standard) and m/z 721.1 -> 296.1 for ritonavir (internal standard).
Extraction of the drug from the plasma was carried out by the precipitation method. An aliquot of drug-free plasma spiked with 50 μl of ZnSO4 solution and 300 μl of methanol/acetonitrile (50:50, v/v) including IS was added. The mixture was vortex mixed for 30 s and centrifuged at 14,000 g (2000 rpm) at […] for 5 min. The supernatant solution was separated and filtered through a 0.45-µ membrane filter and stored at −20°C until use for analysis. The aforementioned extraction procedure was followed for all plasma samples, calibration curve samples, and QC samples. The optimization of the extraction procedure was required to reduce variation in the area of IS and improve injection to injection reproducibility. The schematic flow chart for the extraction procedure is depicted in Figure 1.
TAC (3 mg/kg) was administered orally to experimental rats (N = 6), and in another group, PRE at a dosage of 200 mg/kg was orally co-administered with TAC dosage of 3 mg/kg in a similar manner to six rats. Both groups were given a volume of 10 ml/kg which was a single dose to all animals. Blood samples were drawn at regular intervals, and the blood plasma concentration of TAC was assessed with the help of the validated LC-MS/MS technique ([Sattler et al., 1992]; [Alanbaki et al., 2019]).
Pretreatment of PRE (200 mg/kg) for a period of six consecutive days was done in group 2, and afterward, on the 7th day, in group 2, PRE (200 mg/kg) was co-administered with TAC (3 mg/kg) to experimental animals (N = 6). In group 1, a single dose of TAC (3 mg/kg) was administered to the animals at a volume of 10 ml/kg body weight.
To study the dose–effect relationship, the Wistar rats were equally distributed into five groups (N = 6 rats/group). PRE at a dose of 100, 200, 400, and 800 mg/kg was given by oral route to the rats, co-administrated with TAC (3 mg/kg). The drug TAC at a dose of 3 mg/kg was given similarly to all the rats in another group, with a volume of 10 ml/kg body weight. Blood was collected from the retro-orbital plexus, and the plasma samples were separated.
The experimental animals were fasted for 12 h before the collection of blood. A total of 300 μL of blood were collected in Eppendorf tubes containing heparinized solution at different time intervals (0, 0.5, 1.0, 2.0, 4.0, 8.0, 12, and 24 h). Plasma was separated and approximately 100 μl of samples was pipetted in the tubes (Figure 2). A total of 300 μl of methanol/acetonitrile (50:50, v/v) and 50 μl of ZnSO4 solution were added, and the solution was vortexed for 30 s and centrifuged at 14,000 g (2000 rpm) for 10 min (Figure 2). All the samples were stored at −20°C until further analysis ([Anlamlert and Sermsappasuk, 2020]).
Pharmacokinetic parameters such as time to reach the maximum concentration (Tmax) and Cmax of TAC were read from the […] (observed blood concentration vs. time profile). AUC0-12 was calculated with the help of a linear trapezoidal rule (Drug and Statistics (DAS) software version 2.1.1). […]

[3] = human, probe kit CYP3A4 substrate metabolised to resorufin (not named), read-out: % Relative Inhibition

T1 sequence (P08684 whole entry): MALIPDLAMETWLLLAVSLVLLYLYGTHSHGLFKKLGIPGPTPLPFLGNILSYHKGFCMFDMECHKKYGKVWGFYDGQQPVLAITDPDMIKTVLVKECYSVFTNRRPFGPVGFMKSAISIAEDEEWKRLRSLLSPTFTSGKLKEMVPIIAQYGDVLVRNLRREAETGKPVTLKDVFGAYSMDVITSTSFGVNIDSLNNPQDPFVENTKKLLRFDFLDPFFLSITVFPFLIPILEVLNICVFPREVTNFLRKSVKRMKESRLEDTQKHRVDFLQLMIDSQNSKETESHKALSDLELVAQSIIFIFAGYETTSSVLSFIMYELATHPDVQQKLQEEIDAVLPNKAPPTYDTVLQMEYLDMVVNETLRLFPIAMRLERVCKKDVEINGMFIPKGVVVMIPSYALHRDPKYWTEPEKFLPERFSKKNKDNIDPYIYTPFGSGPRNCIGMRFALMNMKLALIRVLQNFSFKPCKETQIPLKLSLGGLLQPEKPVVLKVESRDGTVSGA

Row | Compound | inhibition at 50 µM ([1]; human, probe kit CYP3A4 substrate metabolised to resorufin (not named), Concentration 50 (unit inferred), read-out: % Relative Inhibition) | inhibition at 100 µM ([1]; human, probe kit CYP3A4 substrate metabolised to resorufin (not named), Concentration 100 (unit inferred), read-out: % Relative Inhibition) | inhibition at 150 µM [1, 3] | inhibition at 200 µM [1, 3] | inhibition at 250 µM ([1]; human, probe kit CYP3A4 substrate metabolised to resorufin (not named), Concentration 250 (unit inferred), read-out: % Relative Inhibition) | inhibition at 300 µM ([1]; human, probe kit CYP3A4 substrate metabolised to resorufin (not named), Concentration 300 (unit inferred), read-out: % Relative Inhibition) | CYP3A4 inhibitory activity ([1]; varied concentrations) | Mean plasma concentration of TAC ([2]; TAC 3 mg/kg co-administered with PRE 800 mg/kg, multiple-dose study) | AUC0-12 of TAC ([2]; TAC 3 mg/kg co-administered with PRE 100, 200, 400, 800 mg/kg) | Average plasma concentration of TAC ([2]; TAC 3 mg/kg co-administered with PRE 100 to 400 mg/kg, multiple-dose study) | t1/2 of TAC ([2]; TAC 3 mg/kg co-administered with PRE varied doses) | AUC0-inf of TAC ([2]; TAC 3 mg/kg p.o. alone) | Cmax ([2]; Wistar, po, TAC 3 mg/kg p.o. alone, rat plasma) | Tmax ([2]; Wistar, rat, plasma, po, TAC 3 mg/kg p.o. alone) | half-life ([2]; Wistar, rat, plasma, po, TAC 3 mg/kg p.o. alone, read-out: t1/2 of TAC (converted))
1 | O=C1O[C@H]2[C@@H]3OC(=O)c4cc(O)c(O)c(O)c4-c4c(O)c(O)c5oc(=O)c6c(c(O)c(O)c7oc(=O)c4c5c76)-c4c(cc(O)c(O)c4O)C(=O)OC[C@H]3OC(O)[C@@H]2OC(=O)c2cc(O)c(O)c(O)c2-c2c1cc(O)c(O)c2O (mixture of isomers) [Punicalagin] | 89.1% | 76.2% | 64.5% | 52.5% | 35.2% | 11.4% | exhibits CYP3A4 inhibitory activity | – | – | – | – | – | – | – | –
2 | C=CC[C@@H]1/C=C(\C)C[C@H](C)C[C@H](OC)[C@H]2O[C@@](O)(C(=O)C(=O)N3CCCC[C@H]3C(=O)O[C@H](/C(C)=C/[C@@H]3CC[C@@H](O)[C@H](OC)C3)[C@H](C)[C@@H](O)CC1=O)[C@H](C)C[C@@H]2OC [TAC, Tacrolimus] | – | – | – | – | – | – | – | does not increase | increased with an increase in PRE doses | increases with an increase in PRE dose | prolonged | 61.91 ± 17.37 ngh/ml | 9.03 ± 1.21 ng/mL | 54.6 ± 10.8 min | 7.2 ± 2.4 min
3 | CC(=O)N1CCN(c2ccc(OCC3COC(Cn4ccnc4)(c4ccc(Cl)cc4Cl)O3)cc2)CC1 (centres unmarked) [Ketoconazole] | – | – | 72.5% | 55% | – | – | – | – | – | – | – | – | – | – | –

Source: PMC10154516, “Potential profound fluctuation in tacrolimus concentration on consumption of pomegranate rind extract: A Pharmacokinetic Experiment” (Frontiers in Pharmacology, 2023)
